Test results taken from US20110190336A1, “AZABENZIMIDAZOLONES” (CARA THERAPEUTICS, INC., priority 2008, published 2011).

Target: T1, human DP2 receptor (Homo sapiens, UniProt Q9Y5Y4)
T1 construct: expressed in transfected cells; host or cells: CHO-K1 FLP-In (Invitrogen, catalog no. R758-07), stably transfected
T1 sequence (Q9Y5Y4 1-395): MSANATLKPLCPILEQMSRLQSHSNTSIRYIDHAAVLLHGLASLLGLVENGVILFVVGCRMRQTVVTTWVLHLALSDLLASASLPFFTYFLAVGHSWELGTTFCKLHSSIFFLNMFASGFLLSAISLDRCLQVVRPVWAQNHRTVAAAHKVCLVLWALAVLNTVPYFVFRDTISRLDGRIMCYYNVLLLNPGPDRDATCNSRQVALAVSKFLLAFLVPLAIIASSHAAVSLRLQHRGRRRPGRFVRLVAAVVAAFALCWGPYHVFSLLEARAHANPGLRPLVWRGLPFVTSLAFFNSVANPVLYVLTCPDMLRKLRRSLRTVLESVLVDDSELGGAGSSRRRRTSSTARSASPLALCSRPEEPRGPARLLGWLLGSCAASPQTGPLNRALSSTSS
Experiment: Prostaglandin D2 binding inhibition assay (scintillation proximity assay, 3H PGD2, membranes of transfected CHO cells)
Settings: SPA, 5.5 nM 3H PGD2, CHO-K1 FLP-In human DP2 membranes; upper limit determinable 30 μM; read-out: IC50 ranges for inhibition of PGD2 binding to human DP2
Protocol: The ability of compounds to inhibit binding of prostaglandin D2 (PGD2) to the human DP2 receptor was measured using a scintillation proximity assay (SPA). Chinese Hamster Ovary FLP-In cell lines (CHO-K1 FLP-In, Invitrogen, catalog no. R758-07) were stably transfected with the human DP2 gene (Genebank: AY507142). Cell lines were grown in suspension in EX-CELL 302 CHO Serum-free medium (Sigma, catalog no. 14324C) supplemented with 1% Fetal Bovine Serum (Invitrogen no. 10099-141), 2 mM L-glutamine (Invitrogen, catalog no. 25030-081) and 0.5 mg/ml Hygromycin B (Invitrogen, catalog no. 10687-010). Cells were collected by centrifugation in a Beckman Coulter Allegra X-12R centrifuge at 150×g for 5 minutes at room temperature.
Membranes from transfected cells were isolated for binding assays. Cell pellets containing approximately 2×10^9 cells were resuspended in 35 ml of cold membrane homogenization buffer (10 mM Tris (Sigma, catalog no. T2663), 1 mM EDTA (Fluka BioChemika no. 03690), and 70 μl of protease inhibitor cocktail (Sigma, catalog no. P8340)). Cells were homogenized with 30 strokes of a dounce homogenizer (Kontes, catalog no. 885303-0040), and the solution centrifuged at 200×g for 10 minutes. The supernatant was transferred to a 50 ml Oakridge tube (Beckman, catalog no. 357000) and centrifuged in a Beckman Coulter Avanti J-26×PI centrifuge with a JA30.50 rotor at 81,000×g for 1 hour at 15° C. The pellet was resuspended in membrane storage buffer (50 mM Tris (Sigma, catalog no. T2663), 2.5 mM EDTA (Fluka BioChemika no. 03690), 5 mM magnesium chloride (Sigma, catalog no. M1028), 100 mg/ml sucrose (Sigma, catalog no. 50389) and a 1:500 dilution of protease inhibitor cocktail (Sigma, catalog no. P8340)) and the total protein was quantitated using a BCA protein measurement kit (Pierce, catalog no. 23225). Aliquots were frozen at −80° C. until used. Compounds were tested for their ability to inhibit PGD2 binding to the purified membranes. 5 μg of the purified membranes, 0.25 mg of wheat germ agglutinin PVT SPA beads (GE Healthcare, catalog no. RPNQ0060) and 5.5 nM of ^3H PGD2 (PerkinElmer, catalog no. NET-616) were mixed in assay buffer ((50 mM Tris (Sigma, catalog no. T2663), 10 mM magnesium chloride (Sigma, catalog no. M1028), 100 mM sodium chloride (Sigma, catalog no. S6546) and 0.1% bovine serum albumin (Sigma, catalog no. A2153)). Using a Multidrop bulk dispenser, 75 μl of the assay mixture was dispensed in Optiplates (PerkinElmer, catalog no. 6007299) containing the compounds to be tested. After a 60 minute incubation period at room temperature, the plates were read on a PerkinElmer Topcount NXT HTS, and individual wells were quantitated as counts per minute (CPM). Data were expressed as a percent of the difference between the maximum and minimum responses. IC50 values (the concentration of compound producing 50% of the maximal response) were determined using a two-parameter non-linear regression algorithm analyzed using CambridgeSoft Bioassay software. Table 2 gives the range of IC50 values for claimed compounds in the binding assay.

Compound	IC50
COc1cccc(S(=O)(=O)N2CCC(n3c(=O)n(CC(=O)O)c4cccnc43)CC2)c1 [Compound 78, 2-(3-(1-(3-methoxyphenyl-sulfonyl)piperidin-4-yl)-2-oxo-2,3-dihydro-1H-imidazo[4,5-b]pyridin-1-yl)acetic acid]	1 to 10 µM
O=C(O)Cn1c(=O)n(C2CCN(S(=O)(=O)c3ccccc3)CC2)c2ncccc21 [Compound 79, 2-(2-oxo-3-(1-(phenylsulfonyl)piperidin-4-yl)-2,3-dihydro-1H-imidazo[4,5-b]pyridin-1-yl)acetic acid]	1 to 10 µM
O=C(O)Cn1c(=O)n(C2CCN(S(=O)(=O)c3ccc(Cl)s3)CC2)c2ncccc21 [Compound 80, 2-(3-(1-(5-chlorothiophen-2-yl-sulfonyl)piperidin-4-yl)-2-oxo-2,3-dihydro-1H-imidazo[4,5-b]pyridin-1-yl)acetic acid]	1 to 10 µM
O=C(O)Cn1c(=O)n(C2CCN(S(=O)(=O)c3ccc(-c4ccccc4)cc3)CC2)c2ncccc21 [Compound 81, 2-(3-(1-(biphenyl-4-ylsulfonyl)piperidin-4-yl)-2-oxo-2,3-dihydro-1H-imidazo[4,5-b]pyridin-1-yl)acetic acid]	1 to 10 µM
O=C(O)Cn1c(=O)n(C2CCN(S(=O)(=O)c3cc(Cl)cc(Cl)c3)CC2)c2ncccc21 [Compound 84, 2-(3-(1-(3,5-dichlorophenyl-sulfonyl)piperidin-4-yl)-2-oxo-2,3-dihydro-1H-imidazo[4,5-b]pyridin-1-yl)acetic acid]	1 to 10 µM
O=C(O)Cn1c(=O)n(C2CCN(S(=O)(=O)c3ccc(F)c(Cl)c3)CC2)c2ncccc21 [Compound 88, 2-(3-(1-(3-chloro-4-fluorophenyl-sulfonyl)piperidin-4-yl)-2-oxo-2,3-dihydro-1H-imidazo[4,5-b]pyridin-1-yl)acetic acid]	1 to 10 µM
COc1ccc(S(=O)(=O)N2CCC(n3c(=O)n(CC(=O)O)c4cccnc43)CC2)cc1 [Compound 89, 2-(3-(1-(4-methoxyphenylsulfonyl)piperidin-4-yl)-2-oxo-2,3-dihydro-1H-imidazo[4,5-b]pyridin-1-yl)acetic acid]	1 to 10 µM
CS(=O)(=O)c1ccc(S(=O)(=O)N2CCC(n3c(=O)n(CC(=O)O)c4cccnc43)CC2)cc1 [Compound 90, 2-(3-(1-(4-(methylsulfonyl)phenyl-sulfonyl)piperidin-4-yl)-2-oxo-2,3-dihydro-1H-imidazo[4,5-b]pyridin-1-yl)acetic acid]	> 30 µM
O=C(O)Cn1c(=O)n(C2CCN(S(=O)(=O)c3cc(F)c(F)cc3F)CC2)c2ncccc21 [Compound 92, 2-(2-oxo-3-(1-(2,4,5-trifluoro-phenylsulfonyl)piperidin-4-yl)-2,3-dihydro-1H-imidazo[4,5-b]pyridin-1-yl)acetic acid]	1 to 10 µM
Cc1ccccc1S(=O)(=O)N1CCC(n2c(=O)n(CC(=O)O)c3cccnc32)CC1 [Compound 94, 2-(2-oxo-3-(1-(o-tolylsulfonyl)piperidin-4-yl)-2,3-dihydro-1H-imidazo[4,5-b]pyridin-1-yl)acetic acid]	< 1 µM
Cc1cc(S(=O)(=O)N2CCC(n3c(=O)n(CC(=O)O)c4cccnc43)CC2)ccc1F [Compound 95, 2-(3-(1-(4-fluoro-3-methylphenylsulfonyl)piperidin-4-yl)-2-oxo-2,3-dihydro-1H-imidazo[4,5-b]pyridin-1-yl)acetic acid]	1 to 10 µM
Cc1c(F)cccc1S(=O)(=O)N1CCC(n2c(=O)n(CC(=O)O)c3cccnc32)CC1 [Compound 96, 2-(3-(1-(3-fluoro-2-methylphenylsulfonyl)piperidin-4-yl)-2-oxo-2,3-dihydro-1H-imidazo[4,5-b]pyridin-1-yl)acetic acid]	< 1 µM
COc1ccccc1S(=O)(=O)N1CCC(n2c(=O)n(CC(=O)O)c3cccnc32)CC1 [Compound 97, 2-(3-(1-(2-methoxyphenylsulfonyl)piperidin-4-yl)-2-oxo-2,3-dihydro-1H-imidazo[4,5-b]pyridin-1-yl)acetic acid]	1 to 10 µM
CCCCOc1ccc(S(=O)(=O)N2CCC(n3c(=O)n(CC(=O)O)c4cccnc43)CC2)cc1 [Compound 98, 2-(3-(1-(4-butoxyphenylsulfonyl)piperidin-4-yl)-2-oxo-2,3-dihydro-1H-imidazo[4,5-b]pyridin-1-yl)acetic acid]	< 1 µM
CCOc1ccc(S(=O)(=O)N2CCC(n3c(=O)n(CC(=O)O)c4cccnc43)CC2)cc1 [Compound 99, 2-(3-(1-(4-ethoxyphenylsulfonyl)piperidin-4-yl)-2-oxo-2,3-dihydro-1H-imidazo[4,5-b]pyridin-1-yl)acetic acid]	1 to 10 µM
CS(=O)(=O)c1ccccc1S(=O)(=O)N1CC[C@@H](n2c(=O)n(CC(=O)O)c3cccnc32)C1 [Compound 100, (R)-2-(3-(1-(2-(methylsulfonyl)phenylsulfonyl)pyrrolidin-3-yl)-2-oxo-2,3-dihydro-1H-imidazo[4,5-b]pyridin-1-yl)acetic acid]	< 1 µM

The remaining lines, values ahead:

IC50	Compound
< 1 µM	O=C(O)Cn1c(=O)n(C2CCN(S(=O)(=O)c3cc(Cl)ccc3Cl)CC2)c2ncccc21 [Compound 82, 2-(3-(1-(2,5-dichlorophenylsulfonyl)piperidin-4-yl)-2-oxo-2,3-dihydro-1H-imidazo[4,5-b]pyridin-1-yl)acetic acid]
< 1 µM	O=C(O)Cn1c(=O)n(C2CCN(S(=O)(=O)c3cc(F)c(Br)cc3F)CC2)c2ncccc21 [Compound 83, 2-(3-(1-(4-bromo-2,5-difluorophenyl-sulfonyl)piperidin-4-yl)-2-oxo-2,3-dihydro-1H-imidazo[4,5-b]pyridin-1-yl)acetic acid]
< 1 µM	O=C(O)Cn1c(=O)n(C2CCN(S(=O)(=O)c3ccccc3C(F)(F)F)CC2)c2ncccc21 [Compound 85, 2-(2-oxo-3-(1-(2-(trifluoromethyl)phenylsulfonyl)piperidin-4-yl)-2,3-dihydro-1H-imidazo[4,5-b]pyridin-1-yl)acetic acid]
< 1 µM	O=C(O)Cn1c(=O)n(C2CCN(S(=O)(=O)c3cc(Cl)c(F)cc3F)CC2)c2ncccc21 [Compound 86, 2-(3-(1-(5-chloro-2,4-difluorophenyl-sulfonyl)piperidin-4-yl)-2-oxo-2,3-dihydro-1H-imidazo[4,5-b]pyridin-1-yl)acetic acid]
< 1 µM	O=C(O)Cn1c(=O)n(C2CCN(S(=O)(=O)c3ccc(Br)cc3F)CC2)c2ncccc21 [Compound 87, 2-(3-(1-(4-bromo-2-fluorophenyl-sulfonyl)piperidin-4-yl)-2-oxo-2,3-dihydro-1H-imidazo[4,5-b]pyridin-1-yl)acetic acid]
< 1 µM	O=C(O)Cn1c(=O)n(C2CCN(S(=O)(=O)c3cc(F)c(Cl)cc3F)CC2)c2ncccc21 [Compound 91, 2-(3-(1-(4-chloro-2,5-difluoro-phenylsulfonyl)piperidin-4-yl)-2-oxo-2,3-dihydro-1H-imidazo[4,5-b]pyridin-1-yl)acetic acid]
< 1 µM	O=C(O)Cn1c(=O)n(C2CCN(S(=O)(=O)c3ccc(F)cc3F)CC2)c2ncccc21 [Compound 93, 2-(3-(1-(2,4-difluorophenyl-sulfonyl)piperidin-4-yl)-2-oxo-2,3-dihydro-1H-imidazo[4,5-b]pyridin-1-yl)acetic acid]
